Source: patent publication US9062039B2, “Therapeutic compounds” (CHANGZHOU LE SUN PHARMACEUTICALS LIMITED, priority 2012, dated 2015)
Read-outs that look alike come from different tables or passages of the source.

What was measured:
[1] = system: Normal T-cells; assay: Ex vivo CLL assay (Annexin V apoptosis, flow cytometry); assay type: cell-based, human; details: up to 48 h
[2] = system: MCF-7 (human breast carcinoma); assay: 48h MTT proliferation assay; assay type: cell-based
[3] = system: Normal B-cells; assay: Ex vivo CLL assay (Annexin V apoptosis, flow cytometry); assay type: cell-based, human; details: up to 48 h
[4] = system: Patient CLL B-cells; assay: as above; assay type: cell-based, human; details: up to 48 h
[5] = system: HCT-116 (human colon carcinoma); assay: 48h MTT proliferation assay; assay type: cell-based
[6] = Determination of pharmacokinetics in mice; assay type: in vivo; details: male, CD1, mouse, plasma; Mice PK, 10 mg/kg, po; read-out: Oral bioavailability F %
Experimental: For PK measurements male adult CD1 mice weighing 25-30 g (Charles River) are split into weight matched groups of 3 per group. The mice were held at the scruff of the neck and orally dosed via a metal gavage directly into the stomach. Immediately after dosing mice are returned to their cage, plastic box cage with sawdust bedding, and food and water available. Blood samples were collected from the mouse under anaesthesia by cardiac puncture using a 1 mL syringe and 25 gauge needle at time zero and at intervals up to 8 h. Harvested blood was centrifuged at 7000×G for 2 minutes, and the plasma aspirated and frozen at −20° C. until analysis. Quantitative compound level analysis was carried out using LC-MS/MS methods. Pharmacokinetic data derived using PK Solutions 2.0, non-compartmental analysis. Oral bioavailability (% F) was calculated by taking the ratio of dose-normalised AUC values from oral versus parenteral dosing.

[7] = system: primary CLL cells co-cultured with CD40L-expressing mouse embryonic fibroblasts; details: fludarabine alone; Walsby et al. 2012; cited from earlier work
[8] = system: MCL1, BCL2, XIAP, CCND1 and CCND2 expression in CLL cells; assay: Gene expression profiling (Affymetrix microarray); assay type: cell-based, human
Description: The detailed protocol for sample preparation and microarray processing is available from Affymetrix (http://www.affymetrix.com). […] After second strand synthesis, the resulting cDNA was subjected to an in vitro transcription reaction using a Bioarray kit (Enzo Diagnostics, New York, N.Y., USA) to generate biotinylated cRNA. This was subsequently fragmented and hybridized to the Affymetrix U133 2.0 Gene Chips. After hybridization, each microarray was washed, stained and scanned with an argon-ion confocal laser, with excitation at 488 nm and detection at 570 nm. The significance of differences between experimental conditions was determined using the Student's t test for paired and unpaired observations. To assess the interaction between agents, the median effect method was employed using CalcuSyn software (CalcuSyn; Biosoft International, Ferguson, Mo.). The combination index was calculated for the two-drug combination using an experimentally determined fixed concentration ratio. […] Affymetrix gene expression data were processed using Partek Genomics Suite (Partek Inc. Saint Louis, USA).

[9] = system: MCL1 transcription in CLL cells; assay: Real-time reverse transcription-PCR of MCL1; assay type: cell-based, human; details: 4 h, with and without CD40L co-culture
Experimental: CDKI-73, 100:1) for 4 h using the method described by Walsby et al. (Oncotarget 3, 525-34 (2012)).

[10] = system: primary CLL cells co-cultured with CD40L-expressing mouse embryonic fibroblasts; assay: Synergy between CDKI-73 and fludarabine under CD40L co-culture; assay type: cell-based, human; details: CDKI-73 combined with fludarabine, other two additive
Experimental: Lymphocytes were separated using Ficoll-Hypaque (Sigma, Poole, UK) and autologous plasma was collected for use in some experiments. Separated lymphocytes were maintained in RPMI medium supplemented with 10% fetal bovine serum (FBS), penicillin (50 U/ml), streptomycin (50 μg/ml) and recombinant human IL-4 (R and D Systems, Abingdon, UK) (5 ng/ml). […] The significance of differences between experimental conditions was determined using the Student's t test for paired and unpaired observations. To assess the interaction between agents, the median effect method was employed using CalcuSyn software (CalcuSyn; Biosoft International, Ferguson, Mo.). The combination index was calculated for the two-drug combination using an experimentally determined fixed concentration ratio.

[11] = MCF7, read-out: 48h-MTT Anti-proliferative activity GI50 MCF-7 (human breast carcinoma), Table 2, 48 h
[12] = MCF7, read-out: 48h-MTT cytotoxicity GI50 MCF-7, Table 1, 48 h
[13] = HCT-116, read-out: 48h-MTT Anti-proliferative activity GI50 HCT-116 (human colon carcinoma), Table 2, 48 h
[14] = HCT-116, read-out: 48h-MTT cytotoxicity GI50 HCT-116, Table 1, 48 h

CNc1nc(C)c(-c2nc(Nc3cccc(S(N)(=O)=O)c3)ncc2C#N)s1 [Comparator, 3-(5-cyano-4-(4-methyl-2-(methylamino)thiazol-5-yl)pyrimidin-2-ylamino)benzenesulfonamide, reference compound]
Ex vivo efficacy, LD50 Normal T-cells [1]: 350 µM | GI50 [2, 11]: 480 nM | GI50 [2, 12]: 480 nM | Ex vivo efficacy, LD50 Normal B-cells [3]: 89 µM | Ex vivo efficacy, LD50 Patient CLL B-cells [4]: 0.43 µM | GI50 [5, 13]: 430 nM | GI50 [5, 14]: 440 nM | bioavailability [6]: 7%

Nc1nc(F)nc2c1ncn2[C@@H]1O[C@H](CO)[C@@H](O)[C@@H]1O [fludarabine]
cytotoxic effects of fludarabine under CD40L co-culture [7]: completely abrogates

CNc1nc(C)c(-c2nc(Nc3cccc(S(N)(=O)=O)c3)ncc2F)s1 [Example 1, 3-(5-Fluoro-4-(4-methyl-2-(methylamino)thiazol-5-yl)pyrimidin-2-ylamino)benzene sulfonamide]
Ex vivo efficacy, LD50 Normal T-cells [1]: 506.3 µM | GI50 [2, 11]: 50 nM | GI50 [2, 12]: 30 nM | expression of MCL1, BCL2, XIAP and CCND1 and D2 ([8]; combination 0.1 μM CDKI-73 and 10 μM fludarabine, 4 h): marked repression | expression of MCL1, BCL2, XIAP and CCND1 and CCND2 ([8]; single agent, 0.1 μM CDKI-73, 4 h): down regulated | Ex vivo efficacy, LD50 Normal B-cells [3]: 40.5 µM | MCL1 transcription (QRT-PCR) ([9]; CDKI-73 in combination with fludarabine (100:1)): significantly inhibited | MCL1 transcription (QRT-PCR) ([9]; single agent): significantly inhibited | Ex vivo efficacy, LD50 Patient CLL B-cells [4]: 0.08 µM | GI50 [5, 13]: 60 nM | GI50 [5, 14]: 30 nM | samples tested that showed cytotoxic synergy [10]: 8/10 | bioavailability [6]: 56%

CNc1nc(C)c(-c2nc(Nc3cccc(S(N)(=O)=O)c3)ncc2Cl)s1 [Example 3, 3-(5-chloro-4-(4-methyl-2-(methylamino)thiazol-5-yl)pyrimidin-2-ylamino)benzene sulfonamide]
GI50 [2, 12]: 60 nM | GI50 [5, 14]: 30 nM
